Assay results reported in PubChem BioAssay AID1963849 (Molecular Pharmacology Branch, DTP, NCI, 2024).

Test system: 299254-011-R-J1-PDC complex spheroid viability
Assay: Anticancer human tumor 299254-011-R-J1-PDC patient-derived melanoma cell line growth inhibition [POLQ]
Details: for IC50: curve of first compound; for viability, T/C: stronger effect = lower value
Protocol: Multicellular complex tumor spheroid response to Polymerase (POL) inhibitors (novobiocin, ART-558, RP6685) in combination with a variety of drugs and investigational agents in selected tumor cell lines
The POL inhibitors (novobiocin, ART-558, and RP6685) were evaluated both individually and in combination with standard of care and investigational anticancer small molecules within a complex spheroid model of solid tumors. . Complex spheroids include a stromal component modeled by human endothelial cells (HUVEC) and fibroblasts modeled by human mesenchymal stem cells (MSCs). The concentration ranges selected for each drug and investigational agent were based upon clinically achievable concentrations if the clinical Cmax of the agent was known.
Compounds. The drugs and investigational agents: novobiocin (NSC847541), ART-558 (NSC835418), RP-6685 (NSC848927), peposertib (NSC802822), ceralasertib (NSC780249), elimusertib (NSC800525), camonsertib (NSC841442), AZD-1390 (NSC803789), olaparib (NSC753686), talazoparib (NSC767125), rucaparib (NSC756644), sotorasib (NSC818433), MRTX-1133 (NSC836407), SN-38 (NSC673596), topotecan (NSC609699), epotoside (NSC141540), doxorubicin (NSC123127), gemcitabine (NSC613327), 5-fluorouracil (NSC19893), paclitaxel (NSC125973), vemurafenib (NSC761431), MSA-2 (NSC828583), SN-011 (NSC837082), adavosertib (NSC754352), prexasertib (NSC758257), carboplatin (NSC241240) and oxaliplatin (NSC266046), were obtained from the National Cancer Institute (NCI) Developmental Therapeutics Program Chemical Repository (21). The FDA-approved anticancer drug set is available from the Developmental Therapeutics Program at https://dtp.cancer.gov/organization/dscb/obtaining/. […] The stock solutions were prepared in dimethyl sulfoxide (DMSO, Sigma-Aldrich, St. Louis, MO, cat. D2650), except for the platinum compounds which were prepared in saline (Quality Biological, Gaithersburg, MD, cat. 114-055-101), at 800-fold the tested concentration and stored at -70 degrees C prior to their use. All drugs and investigational agents were tested over a range starting from a high concentration at or near the clinical Cmax and decreasing in half-log increments. If the clinical Cmax for an agent had not been determined, the highest concentration tested was 10 microM, except for SN-38, which was tested at a high concentration of 1 microM.
Cell Culture. All cells were maintained in an incubator at 37 degrees C and 5% CO2 with 95% humidity. The PDC lines were cultured according to standard operating procedures established by the NCI PDMR (https://pdmr.cancer.gov). Table 3 of the manuscript, lists the cell lines along with the number of the three cell types plated to form the mct-spheroids and media for tumor cell growth. After thawing, all PDC lines, except 997537-175-T-J1-PDC and 415267-285-R-J2-PDC, were cultured in Matrigel-coated flasks prepared with a working solution of 1X Ham's F-12 nutrient mix, without supplementation (Thermo Fisher Scientific, cat. 11765054), 100 U/mL penicillin-streptomycin (Thermo Fisher Scientific, cat. 15140122), and 2.5% Matrigel (Corning Inc., Corning, NY, cat. 354248) for the first three passages. The two PDC lines 997537-175-T-J1-PDC and 415267-285-R-J2-PDC were cultured on uncoated flasks. The 857933-349-R-J2-PDC line was cultured in 6C/Colon 1B media containing advanced DMEM/F-12 (Thermo Fisher Scientific, cat. 12634028), 10 mM HEPES (Thermo Fisher Scientific, cat. 15630080), 1X GlutaMAX supplement (Thermo Fisher Scientific, cat. 35050061), 0.1 mg/mL primocin (InvivoGen, San Diego, CA, cat. ant-pm-2), 10% defined fetal bovine serum, heat inactivated (HyClone Laboratories Inc., Logan, UT, cat. SH30070.03HI), 50% L-WRN conditioned media (ATCC, cat. CRL-3276), 1.25 mM N-Acetyl-L-cysteine (Sigma-Aldrich, cat. A9165), 10 mM nicotinamide (Sigma-Aldrich, cat. N0636), 1X B-27 supplement (Thermo Fisher Scientific, cat. 17504044), 1X N-2 supplement (Thermo Fisher Scientific, cat. […]

[1] = second compound 0.0316 µM, first compound 0.0316 µM
[2] = second compound 0.0316 µM, first compound 0.1 µM
[3] = second compound 0.0316 µM, first compound 0.316 µM
[4] = second compound 0.0316 µM, first compound 1 µM
[5] = second compound 0.0316 µM, first compound 3.16 µM
[6] = second compound 0.0316 µM, first compound 10 µM
[7] = second compound 0.1 µM, first compound 0.0316 µM
[8] = second compound 0.1 µM, first compound 0.1 µM
[9] = second compound 0.1 µM, first compound 0.316 µM
[10] = second compound 0.1 µM, first compound 1 µM
[11] = second compound 0.1 µM, first compound 3.16 µM
[12] = second compound 0.1 µM, first compound 10 µM
[13] = second compound 0.316 µM, first compound 0.0316 µM
[14] = second compound 0.316 µM, first compound 0.1 µM
[15] = second compound 0.316 µM, first compound 0.316 µM
[16] = second compound 0.316 µM, first compound 1 µM
[17] = second compound 0.316 µM, first compound 3.16 µM
[18] = second compound 0.316 µM, first compound 10 µM
[19] = second compound 1 µM, first compound 0.0316 µM
[20] = second compound 1 µM, first compound 0.1 µM
[21] = second compound 1 µM, first compound 0.316 µM
[22] = second compound 1 µM, first compound 1 µM
[23] = second compound 1 µM, first compound 3.16 µM
[24] = second compound 1 µM, first compound 10 µM
[25] = second compound 3.16 µM, first compound 0.0316 µM
[26] = second compound 3.16 µM, first compound 0.1 µM
[27] = second compound 3.16 µM, first compound 0.316 µM
[28] = second compound 3.16 µM, first compound 1 µM
[29] = second compound 3.16 µM, first compound 3.16 µM
[30] = second compound 3.16 µM, first compound 10 µM
[31] = second compound 10 µM, first compound 0.0316 µM
[32] = second compound 10 µM, first compound 0.1 µM
[33] = second compound 10 µM, first compound 0.316 µM
[34] = second compound 10 µM, first compound 1 µM
[35] = second compound 10 µM, first compound 3.16 µM
[36] = second compound 10 µM, first compound 10 µM
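Note: spheroids exposed to drugs for one week before measurement.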
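Throughout, for viability, T/C: percent viability relative to DMSO vehicle control taken as 100%.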

Nc1ccn(C2OC(CO)C(O)C2(F)F)c(=O)n1 (centres undefined) + COC1C(OC(N)=O)C(O)C(Oc2ccc3c(O)c(NC(=O)c4ccc(O)c(CC=C(C)C)c4)c(=O)oc3c2C)OC1(C)C was tested, and the IC50 (second compound 0.0316 µM) was 81.8 nM, the IC50 (second compound 0.1 µM) was 76.7 nM and the IC50 (second compound 0.316 µM) was 63.1 nM. It also gave an IC50 (second compound 1 µM) of 79.6 nM, an IC50 (second compound 3.16 µM) of less than 31.6 nM and an IC50 (second compound 10 µM) of 66.2 nM. The viability, T/C [1] was 62.8%, the viability, T/C [2] was 44.3% and the viability, T/C [3] was 41.2%. The viability, T/C [4] was 35.1%, the viability, T/C [5] was 46.8% and the viability, T/C [6] was 44.4%. It also gave a viability, T/C [7] of 60.1%, a viability, T/C [8] of 40.6% and a viability, T/C [9] of 52.4%. It also gave a viability, T/C [10] of 37.7%, a viability, T/C [11] of 35.6% and a viability, T/C [12] of 39.2%. For the same compound, the viability, T/C [13] was 64.7%, the viability, T/C [14] was 40.6% and the viability, T/C [15] was 36.6%. It also gave a viability, T/C [16] of 30.9%, a viability, T/C [17] of 44.7% and a viability, T/C [18] of 41.2%. The viability, T/C [19] was 71.6%, the viability, T/C [20] was 44.4% and the viability, T/C [21] was 46.6%. It also gave a viability, T/C [22] of 33.8%, a viability, T/C [23] of 48.9% and a viability, T/C [24] of 45.5%. For the same compound, the viability, T/C [25] was 57%, the viability, T/C [26] was 38.8% and the viability, T/C [27] was 35%. For the same compound, the viability, T/C [28] was 39.6%, the viability, T/C [29] was 31.3% and the viability, T/C [30] was 42.4%. It also gave a viability, T/C [31] of 61%, a viability, T/C [32] of 44.1% and a viability, T/C [33] of 39.1%. The viability, T/C [34] was 39.3%, the viability, T/C [35] was 48.9% and the viability, T/C [36] was 31.4%.

Compound O=c1[nH]cc(F)c(=O)[nH]1 + COC1C(OC(N)=O)C(O)C(Oc2ccc3c(O)c(NC(=O)c4ccc(O)c(CC=C(C)C)c4)c(=O)oc3c2C)OC1(C)C has an IC50 (second compound 0.0316 µM) greater than 10000 nM, an IC50 (second compound 0.1 µM) greater than 10000 nM and an IC50 (second compound 0.316 µM) greater than 10000 nM. For the same compound, the IC50 (second compound 1 µM) was greater than 10000 nM, the IC50 (second compound 3.16 µM) was greater than 10000 nM and the IC50 (second compound 10 µM) was greater than 10000 nM. It also gave a viability, T/C [1] of 109%, a viability, T/C [2] of 108% and a viability, T/C [3] of 122%. For the same compound, the viability, T/C [4] was 99.6%, the viability, T/C [5] was 94.3% and the viability, T/C [6] was 66.8%. It also gave a viability, T/C [7] of 110%, a viability, T/C [8] of 110% and a viability, T/C [9] of 114%. The viability, T/C [10] was 113%, the viability, T/C [11] was 93.7% and the viability, T/C [12] was 76.3%. It also gave a viability, T/C [13] of 109%, a viability, T/C [14] of 102% and a viability, T/C [15] of 116%. The viability, T/C [16] was 101%, the viability, T/C [17] was 91.8% and the viability, T/C [18] was 79.1%. The viability, T/C [19] was 111%, the viability, T/C [20] was 115% and the viability, T/C [21] was 92.8%. For the same compound, the viability, T/C [22] was 110%, the viability, T/C [23] was 101% and the viability, T/C [24] was 87.7%. It also gave a viability, T/C [25] of 110%, a viability, T/C [26] of 117% and a viability, T/C [27] of 128%. The viability, T/C [28] was 112%, the viability, T/C [29] was 91.3% and the viability, T/C [30] was 68.8%. The viability, T/C [31] was 130%, the viability, T/C [32] was 131% and the viability, T/C [33] was 96.2%. It also gave a viability, T/C [34] of 109%, a viability, T/C [35] of 89.9% and a viability, T/C [36] of 78.3%.
